Source: a melting point compilation (Tetko et al.; mined from patent text by program, amines drawn as free bases though some values may be those of a salt)

| melting point | SMILES |
| --- | --- |
| 209 to 210 °C | CS(=O)(=O)c1ccc(COc2cccc(C(=O)Nc3ccc(C#N)cc3)c2)cc1 |
| 139 to 140 °C | CCOC(=O)c1ccc(C(NCC(=O)Nc2c(C(C)C)cccc2C(C)C)c2ccccc2)cc1 (stereo not drawn) |
| 146 to 147 °C | O=C(NCC(=O)c1cccs1)c1ccccc1 |
| 162 to 163 °C | COc1cc(COc2nn(Cc3ccccc3)cc2C(=O)O)ccc1OCc1nc(-c2ccccc2)oc1C |
| 138 to 139 °C | CC(NC(=O)C1(Cl)C(C)(C)C1(Cl)Cl)c1ccc(Cl)cc1 (stereo not drawn) |
| 228 to 230 °C | COCCOc1cc2ncnc(C3C(=O)N(C=O)c4ccccc43)c2cc1OC (stereo not drawn) |
| 132 to 133 °C | Cc1ccc(-c2ccc3c(c2)C=C(C=O)CCO3)cc1 |
| 168 to 170 °C | Nc1ncnn1C(=S)NC1CCCCC1 |
| 196 to 197 °C | N#Cc1ccc(N(Cc2ccc(O)c(Cl)c2)n2cnnc2)cc1-c1cc2ccccc2o1 |
| 187 °C | C[Si](C)(C)CCCOc1ccc(C(=O)O)c(O)c1 |
| 175 to 176 °C | COc1ccc(Cn2cnc3c(-c4ccco4)ncnc32)cc1 |
| 120 °C | CN(C)c1c(Cl)cc(C(O)C#Cc2ccc(C(=O)O)cc2)cc1C(C)(C)C (stereo not drawn) |
| 111 to 113 °C | COC(=O)c1ccnc(N2CCN(Cc3ccncc3)C2=O)c1 |
| 228 to 230 °C | CCCCc1nc(Cl)c(Cc2nnn[nH]2)n1Cc1ccc(C(=O)c2ccccc2C(=O)O)cc1 |
| 84 to 85 °C | CCOC(=O)C(=NNc1ccc(Cl)cc1)C(C)=O |
| 247 to 251 °C | CC(C)(C)C(=O)CN1C(=O)C(NC(=O)Nc2ccccc2)CN(C2CCCCC2)c2ccccc21 (stereo not drawn) |
| 110 °C | N=c1sc2cc(OC(F)(F)F)ccc2n1CCSc1ncccn1 |
| 255 °C | CSC1NC(N)=CC(=O)N1C (stereo not drawn) |
| 313 °C | O=[N+]([O-])c1cnc2ccc(F)cc2c1O |
| 147 to 148 °C | O=C(O)CCCc1cc(C(c2cc(F)ccc2F)S(=O)(=O)c2ccc(Cl)cc2)c(Cl)cn1 (stereo not drawn) |
| 95 to 100 °C | Nc1cccc(C(=O)NCc2ccccc2)c1 |
| 204 to 207 °C | O=C(Nc1ccccc1)NN1CCCOC1=O |
| 151 to 153 °C | ON=C(Cc1ccccc1)c1ccccn1 |

| melting point | SMILES |
| --- | --- |
| 93.5 °C | CC(CCCC(C)C1CCC2C3CC=C4CC(O)CCC4(C)C3CCC12C)CO[Si](C)(C)C(C)(C)C (stereo not drawn) |
| 78 to 81 °C | CN(C)c1cc2ccc(OCc3ccccc3)cc2s1 |
| 180 to 183 °C | O=C(O)Cc1c(Cl)nc(-c2ccc([N+](=O)[O-])cc2)n1Cc1ccccc1 |
| 124 to 126 °C | CC(=O)Oc1ccc([C@H]2[C@H](c3ccccc3)C2(Cl)Cl)cc1 (relative stereo) |
| 137 to 139 °C | O=S(=O)(CS(=O)(=O)C1CCCCC1)C1CCCCC1 |
| 68 to 70 °C | CCCN(c1ccncc1Cl)n1cc(C)c2ccccc21 |
| 245 to 249 °C | CN(C)n1c(S)nc2ccccc2c1=O |
| 144 °C | CN(c1ccc2ccccc2c1)C(C(=O)O)c1c(Cl)cccc1Cl (stereo not drawn) |
| 126 to 127 °C | CCNC(=O)c1c(OC(C)(C)C)ccc2ccccc12 |
| 134 to 137 °C | O=C1OC(c2cccc3ccccc23)=NC1=Cc1ccccc1 |
| 149 to 150 °C | CCCCN(CC(=O)c1ccc(OCc2ccccc2)c2[nH]c(C(=O)OCCN3CCOCC3)cc12)Cc1ccccc1 |
| > 300 °C | COC(=O)Nc1nc2cc(C(c3ccc(F)cc3)n3ccnc3C)ccc2[nH]1 (stereo not drawn) |
| 160 °C | COc1cc2c(cc1OC)CN(CCCOc1ccc(NC(=O)c3cccc4c(=O)c5cccc(OC)c5[nH]c34)c(C)c1)CC2 |
| 125 to 126 °C | CCCCNC(=O)[C@H](C)C[C@H](O)[C@H](CC1CCCCC1)NC(=O)[C@H](Cc1cscn1)NC(=O)[C@@H](CC(=O)N1CCN(C)CC1)Cc1ccc(OC)cc1 |
| 187 to 188 °C | c1ccc2nc(N3CCN(Cc4n[nH]c5ccccc45)CC3)ccc2c1 |
| 104 to 106 °C | O=C1c2cc(OCc3ccc4ccccc4n3)ccc2CC1Cc1ccccc1 (stereo not drawn) |
| 169 to 172 °C | Cc1ccc(S(=O)(=O)Nc2onc(C)c2Br)cc1 |
| 68 to 69 °C | CC(=O)OCC(ON1C(C)(C)CC(O)CC1(C)C)c1ccccc1 (stereo not drawn) |
| 219 to 234 °C | CC(=O)Nc1ccc(S(=O)(=O)Nc2ccn(C3CCCCC3)c(=O)n2)cc1 |
| 98 to 107 °C | CCOC(=O)c1ccc(NCCCc2ccc(OCc3ccccc3)cc2)cc1 |
| 38 to 41 °C | Nc1c(Cl)cc(C(O)CNCCCCCCOCCCc2ccccn2)cc1Cl (stereo not drawn) |
| 208 °C | Nc1cc2c(Nc3ccc(F)c(Cl)c3)ncnc2cc1OCC1CC1 |
| 170 to 171 °C | CC(C)C(=O)Nc1c(C(=O)c2occc2CO)[nH]c2cc(Cl)ccc12 |

| melting point | SMILES |
| --- | --- |
| 280 °C | CN1CCN(c2ncc3c(=O)c(C(=O)O)cn(C)c3n2)CC1 |
| 118 to 120 °C | CCOC(=O)COc1cc(C(C)C)c(NC(=O)CN2CCN(CCSc3nc4ccccc4o3)CC2)c(C(C)C)c1 |
| 135 to 137 °C | CCSc1ccc(C(=O)NCc2ccc3c(c2)C(=O)N(C2(C)CCC(=O)NC2=O)C3=O)cc1 (stereo not drawn) |
| 143 to 149 °C | O=C(O)CCc1ccc(-c2ccccc2)cc1 |
| 225 to 226 °C | CCCn1cc2c(n1)-c1c(nc3ccccc3c1N)CC2 |
| 221 to 224 °C | N#Cc1c(-c2sc(Cl)c(Cl)c2Cl)[nH]c(C(F)(F)F)c1Br |
| 176 °C | CC(=O)N=C(N(C)C(C)=O)N(C)C1CCN(c2nc3ccccc3n2Cc2ccc(F)cc2)CC1 |
| 141 to 142 °C | COC1(c2csc(S(=O)(=O)c3ccc(/C(C)=N/O)cc3)c2)CCOCC1 |
| 135 to 136 °C | O=C(CCCl)Nc1ccc(C(=O)c2ccccc2)cc1 |
| 73 to 74 °C | C=CCNc1nc(N(CC=C)CC=C)nc2ccc(Cl)cc12 |
| 230 to 232 °C | CCc1cc(C(=O)c2ccccc2Cl)c(-n2c(CNC(=O)c3cc4ccccc4[nH]3)nnc2-c2ccccc2)s1 |
| 210 °C | CCCNC(=O)c1cnc2ccccc2c1O |
| 300 to 302 °C | Cc1cc(-c2cc3c(cc2F)c(=O)c(C(=O)O)cn3C2CC2)cc(C)n1 |
| 36 to 43 °C | CCOC(=O)COc1cc(C=O)ccc1OCc1ccccc1 |
| 164 to 165 °C | CC(C)(NCc1ncc[nH]1)c1ccc(Cl)cc1 |
| 240 to 241 °C | Cn1ncc(/C=C/C(=O)Nc2ccc(CS(C)=O)cc2)c1-c1ccc(F)cc1 (stereo not drawn) |
| 73 to 75.5 °C | COC(=O)CCCCCOc1ccc(NC(=O)CCCCCO)cc1 |
| 119 to 121 °C | Cc1cc(Oc2ncc(C(F)(F)F)cc2Cl)nn1C(=S)NCc1ccc(Cl)cc1 |
| 59 °C | N#CC(O)COc1ccccc1 (stereo not drawn) |
| 259 to 261 °C | CON=Cc1nc2c(N)nc3cc(-c4ccccc4)ccc3c2s1 |
| 152 °C | O=C(NC(c1ccccc1)C(O)c1ccccc1)OCc1ccccc1 (stereo not drawn) |
| 146 to 147 °C | NCCCOc1cccc2[nH]c3ccccc3c12 |
| 163 to 165 °C | CNc1nc(C2(S(C)=O)C=CC=C(c3ccccc3)C2)c2cc(OC)c(OC)cc2n1 (stereo not drawn) |

| melting point | SMILES |
| --- | --- |
| 83.5 °C | CCCCCCCc1ccc(-c2cnc([C@H]3CC[C@H](C#N)CC3)nc2)cc1 |
| 140 to 142 °C | CCOC(=O)C(Cc1cc2cc(C#N)ccc2o1)c1ccc(O)cc1 (stereo not drawn) |
| 154 to 155 °C | N#CC(C#N)(COc1ccccc1Cl)NC(=O)c1ccc(OC(F)(F)F)cc1 |
| 149 to 151 °C | CCN(C(=O)Nc1ccccc1CCc1cc(C(C)(C)C)c(O)c(C(C)(C)C)c1)C1CCN(Cc2ccccc2)CC1 |
| 204 °C | CCOC(=O)c1nc2scc(CNC(=O)c3ccccc3)c2c(=O)[nH]1 |
| 115 °C | O=C1C2CN(CCc3ccc(Cl)cc3)CC2C(=O)N1c1cc(Cl)cc(Cl)c1 (stereo not drawn) |
| 196 to 197 °C | Cc1ccc(-c2ccc3c(c2)C=C(C(=O)Nc2ccc(CN4CCCCC4)cc2)CO3)cc1 |
| 144 to 145 °C | CCS(=O)(=O)NCCCCn1c(=O)c2c(C)nc3cccc1n32 |
| 199 °C | N#Cc1cnn2c(C(F)(F)F)cc(-c3cccc(F)c3)nc12 |
| 178 to 179 °C | O=C(N1Cc2cncnc2-c2ccc(Cl)cc2C1c1ccccc1Cl)C(F)(F)F (stereo not drawn) |
| 130 to 131 °C | CCOC(=O)C1=C(C)NC(COC(=O)CCC(=O)O)=C(C(=O)OCC)C1c1ccccc1Cl (stereo not drawn) |
| 53 to 55 °C | CCOC(=O)C=Cc1cccc([N+](=O)[O-])c1C |
| 45 to 48 °C | CCOC(=S)Cc1nc2ccccc2s1 |
| 236 to 237 °C | Cc1cc(C)c(-n2[nH]c(Nc3ccc(Cl)cc3)cc2=O)c(C)c1N |
| 235 to 237 °C | CONC(=N)c1ccc(-c2ccc(-c3ccc(C(=N)NOC)nc3)o2)cc1 |
| 170 °C | CC(C)Oc1ccc2ccc(N)nc2n1 |
| 120 to 123 °C | COc1ccc(CCCC(=O)O)c(Cl)c1Cl |
| 146 °C | CNC(=O)N(c1ccccc1)c1cccc2ccccc12 |
| 153 to 154 °C | O=C(O)CCc1c(-c2ccc(F)cc2)[nH]c2ccc(Cl)cc12 |
| 130 to 131 °C | COC(=O)c1ccc(C(O)=CC(=O)c2cc([Si](C)(C)C)ccc2O)cc1 |
| 99 to 101 °C | C=CCSC(c1ccccc1)(c1ccccc1)c1ccccc1 |
| 94 to 96 °C | Cc1cc(CCCCCOc2ccc(C3=NCCO3)cc2C=CBr)on1 |

| SMILES | melting point |
| --- | --- |
| CCC1N=C(c2ccccc2Cl)c2cc(CC(=O)O)sc2-n2c(C)nnc21 (stereo not drawn) | 170 to 180 °C |
| CCC(C)(C)OOC(C)(CCC(=O)NNC(=O)C(C#N)=C(c1ccccc1)c1ccccc1)OOC(C)(C)CC | 145 to 148 °C |
| CCOC(=O)c1ccc(C2=NOC(c3cc(Cl)cc(Cl)c3)(C(F)(F)F)C2)cc1OC (stereo not drawn) | 142 to 144 °C |
| Cc1nnc2n1-c1ccccc1C(c1ccc(Cl)cc1)=NC2NC(=O)Nc1ccccn1 (stereo not drawn) | 274 to 278 °C |
| O=C(O)CCCC(=O)Nc1ccc(N2CCN(C3(c4ccc(-c5ccccc5)cc4)C(=O)NC(=O)NC3=O)CC2)cc1 | 268 to 269 °C |
| CCOc1ccc(Nc2nc(NC(CO)CO)nc(N(C)C3CCN(C)CC3)n2)cc1Cl | 84 °C |
| CN1C(=O)[C@H](NC(=O)CCc2ccc(C#N)cc2)N=C(c2ccccc2)c2ccccc21 | 81 to 85 °C |
